Assay results as given in PMC10451032 (ACS Central Science, 2023).

What was measured:
[1] = system: rNsp5^S144A recombinant SARS-CoV-2; format: cell-based
[2] = system: rNsp5^E166Q recombinant SARS-CoV-2; format: cell-based
[3] = system: rNsp5^H172Q recombinant SARS-CoV-2; format: cell-based
[4] = system: rNsp5^H172Y recombinant SARS-CoV-2; format: cell-based
[5] = system: rNsp5^S144M recombinant SARS-CoV-2; format: cell-based
[6] = system: Mpro M49I, M49T, M49L, and M49V; format: biochemical, SARS-CoV-2
[7] = system: top nine high-frequency mutants at residue N142; format: biochemical, SARS-CoV-2
[8] = system: eight Q189 mutants; format: biochemical, SARS-CoV-2
[9] = biological target: Mpro S144A; conditions: cited from earlier work
[10] = system: Mpro H172Y; conditions: cited from earlier work
[11] = biological target: Mpro G15S, T21I, L89F, K90R, P108S, P132H, and L205V; conditions: cited from earlier work
[12] = system: Mpro Q192T, Q192S, Q192L, Q192A, Q192I, Q192P, Q192H, Q192V, Q192W, Q192C, and Q192F; format: biochemical, SARS-CoV-2

Compound: CC(C)(C)[C@H](NC(=O)C(F)(F)F)C(=O)N1C[C@H]2[C@@H]([C@H]1C(=O)N[C@H](C#N)C[C@@H]1CCNC1=O)C2(C)C [nirmatrelvir]
- EC50 [1]: 127 nM
- EC50 fold increase compared to rNsp5^WT [1]: 5.0 fold
- EC50 [2]: 69.7 nM
- EC50 fold increase compared to rNsp5^WT [2]: 2.7 fold
- EC50 [3]: 133 ± 2.86 nM
- EC50 fold increase compared to rNsp5^WT [3]: 5.2 fold
- EC50 [4]: 378 ± 10.2 nM
- EC50 [5]: 87.1 ± 3.06 nM
- EC50 fold increase compared to rNsp5^WT [5]: 3.4 fold
- change in IC50 vs WT [6]: < 3 fold
- change in IC50 vs WT [7]: < 3.5 fold
- change in IC50 vs WT [8]: < 3.1 fold
- Ki increase [9]: 91.9 fold
- increase in Ki [10]: 233 fold
- IC50 or Ki value shifts [11]: < 2 fold

Compound: CC(C)C[C@H](NC(=O)OCc1ccccc1)C(=O)N[C@@H](CC1CCNC1=O)C(O)S(=O)(=O)[O-].[Na+] (stereo partly shown) [GC-376]
- Cross-resistance (fold vs WT) [12]: > 7.7 fold
